According to patent US20130217664A1, “NOVEL COMPOUNDS USEFUL FOR THE TREATMENT OF DEGENERATIVE AND INFLAMMATORY DISEASES” (priority 2012, published 2013):
Like-named read-outs stand apart in the source and are kept apart here.

How the values were obtained:
[1] = system: pSTAT1(2)-luciferase reporter in HeLa cells triggered with human OSM; experiment: JAK-STAT signalling assay; assay type: cell-based; details: HeLa cells, pSTAT1(2)-luciferase reporter, human OSM 33 ng/mL, read-out: JAK-STAT IC50
Outline: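 HeLa cells transiently co-transfected with pSTAT1(2)-luciferase and LacZ control reporter, preincubated with compound 60 min, then stimulated with human OSM (33 ng/mL final) overnight at 37 °C. Luciferase read by luminescence; percent inhibition from vehicle and no-trigger controls, EC50 from dose-response.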

BA/F3 cell line = experiment: BA/F3 viability assay; details: Mus musculus, BaF3, 48 h, read-out: BA/F3 IC50
human JAK1 = biological target: T1, human JAK1 (Homo sapiens, UniProt P23458); experiment: JAK1 inhibition assay (polyGT substrate / Ulight-JAK1 peptide); assay type: biochemical; details: recombinant human JAK1 catalytic domain; polyGT or Ulight-JAK1 peptide assay
T1 construct: catalytic domain, amino acids 866-1154; catalog number PV4774; purchased Invitrogen PV4774
T1 sequence (P23458 866-1154): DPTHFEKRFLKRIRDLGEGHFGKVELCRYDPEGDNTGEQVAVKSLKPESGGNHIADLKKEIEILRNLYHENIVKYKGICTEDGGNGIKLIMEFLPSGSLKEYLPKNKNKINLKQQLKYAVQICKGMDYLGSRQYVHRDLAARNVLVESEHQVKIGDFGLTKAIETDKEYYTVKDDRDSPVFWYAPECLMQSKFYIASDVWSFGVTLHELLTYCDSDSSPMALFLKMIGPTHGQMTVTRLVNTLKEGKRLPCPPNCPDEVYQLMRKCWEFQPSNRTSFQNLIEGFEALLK
Outline: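 Two formats. PolyGT radiometric: 45 min at 30 °C, stopped with phosphoric acid, counted as cpm. Ulight-JAK1 peptide: 60 min at room temperature, stopped with Eu-anti-phosphotyrosine/EDTA, read as RFU. Percent inhibition normalised to vehicle and 10 μM staurosporine.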

CTLL-2 cell line = experiment: CTLL2 viability assay; assay type: cell-based; details: Mus musculus, IL-2 dependent CTLL2 viability, 24 h, ATP-lite
Text: The protocol describes the methods to analyse the activity of compounds on their ability to sustain the IL2-dependent viability of CTLL2.
Final DMSO concentration was 0.1%.

human TYK2 = biological target: T2, human TYK2 (Homo sapiens, UniProt P29597); experiment: TYK2 inhibition assay; assay type: biochemical; details: recombinant human TYK2 catalytic domain, polyGT substrate
T2 construct: catalytic domain (amino acids 871-1187; catalog number 08-147); purchased Carna Biosciences 08-147
T2 sequence (P29597 871-1187): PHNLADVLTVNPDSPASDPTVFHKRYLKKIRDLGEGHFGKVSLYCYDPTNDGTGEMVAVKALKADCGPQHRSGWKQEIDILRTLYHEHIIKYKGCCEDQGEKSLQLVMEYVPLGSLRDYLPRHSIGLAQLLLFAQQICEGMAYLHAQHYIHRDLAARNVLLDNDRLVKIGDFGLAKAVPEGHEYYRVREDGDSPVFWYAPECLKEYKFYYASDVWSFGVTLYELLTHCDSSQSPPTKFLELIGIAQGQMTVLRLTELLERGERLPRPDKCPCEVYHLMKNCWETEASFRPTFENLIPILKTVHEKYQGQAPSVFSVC
Outline: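 Radiometric kinase reaction run 90 min at 30 °C, stopped with phosphoric acid, washed and scintillation-counted.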

human JAK3 = biological target: T3, human JAK3 (Homo sapiens, UniProt P52333); experiment: JAK3 inhibition assay; assay type: biochemical; details: recombinant human JAK3 catalytic domain; polyGT substrate
T3 construct: catalytic domain (amino acids 781-1124; catalog number PV3855); purchased Invitrogen PV3855
T3 sequence (P52333 781-1124): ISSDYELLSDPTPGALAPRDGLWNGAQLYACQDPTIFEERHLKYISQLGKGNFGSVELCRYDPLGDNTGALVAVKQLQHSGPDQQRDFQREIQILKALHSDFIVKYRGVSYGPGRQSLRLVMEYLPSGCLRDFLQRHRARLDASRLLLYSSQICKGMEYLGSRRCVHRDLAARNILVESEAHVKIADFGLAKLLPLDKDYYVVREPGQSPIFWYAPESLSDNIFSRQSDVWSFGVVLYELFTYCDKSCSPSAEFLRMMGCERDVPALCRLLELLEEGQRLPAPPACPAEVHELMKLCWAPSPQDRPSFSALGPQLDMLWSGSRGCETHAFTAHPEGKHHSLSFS
Outline: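 Radiometric kinase assay: 0.5 ng JAK3 with 2.5 μg polyGT in Tris pH 7.5/MgCl2 buffer, 1 μM ATP plus 0.25 μCi 33P-γ-ATP, 1% DMSO, 45 min at 30 °C, stopped with phosphoric acid.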

human JAK2 = biological target: T4, human JAK2 (Homo sapiens, UniProt O60674); experiment: JAK2 inhibition assay (polyGT substrate / Ulight-JAK1 peptide); assay type: biochemical; details: recombinant human JAK2 catalytic domain; polyGT or Ulight-JAK1 peptide assay
T4 construct: catalytic domain (amino acids 808-1132; catalog number PV4210); GST; purchased Invitrogen PV4210
T4 sequence (O60674 808-1132): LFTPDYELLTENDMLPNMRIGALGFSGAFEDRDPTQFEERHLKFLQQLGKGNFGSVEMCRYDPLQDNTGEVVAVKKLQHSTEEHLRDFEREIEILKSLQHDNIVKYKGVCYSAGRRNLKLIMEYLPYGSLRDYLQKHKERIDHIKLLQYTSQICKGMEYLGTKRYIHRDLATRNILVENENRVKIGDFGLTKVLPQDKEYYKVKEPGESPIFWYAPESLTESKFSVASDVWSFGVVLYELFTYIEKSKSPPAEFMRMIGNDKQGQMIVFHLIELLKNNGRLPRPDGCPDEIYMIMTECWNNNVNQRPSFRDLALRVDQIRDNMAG
Outline: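 Radiometric: 0.025 mU JAK2 with 2.5 μg polyGT, 1 μM ATP plus ^33P-ATP in MOPS pH 7.5 buffer, 1% DMSO, 90 min at 30° C.; filter counting. Alternative TR-FRET format with Ulight-JAK1 peptide, 60 min at room temperature, Eu-anti-phosphotyrosine detection.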

Row | SMILES | IC50 ([1]; Homo sapiens, HeLa) | IC50 (BA/F3 cell line) | IC50 (human JAK1) | IC50 (CTLL-2 cell line) | IC50 (human TYK2) | IC50 (human JAK3) | IC50 [1] | IC50 (human JAK2)
1 | CCc1cc(-c2cncs2)ccc1N(C)c1cc2c(cn1)ncn2C [Compound 151, N-(2-Ethyl-4-(thiazol-5-yl)phenyl)-N,1-dimethyl-1H-imidazo[4,5-c]pyridin-6-amine] | 1 to 500 nM | 1000 to 5000 nM | 0.01 to 100 nM | > 1000 nM | 0.01 to 100 nM | 0.01 to 100 nM | – | –
2 | CCc1cc(CNC2COC2)ccc1N(C)c1cc2c(cn1)ncn2C [Compound 167, N-(2-ethyl-4-((oxetan-3-ylamino)methyl)phenyl)-N,1-dimethyl-1H-imidazo[4,5-c]pyridin-6-amine] | – | > 5000 nM | 0.01 to 100 nM | > 1000 nM | 501 to 1000 nM | > 1000 nM | > 1000 nM | –
3 | CCc1cc(CNC(C)=O)ccc1N(C)c1cc2c(cn1)ncn2C [Compound 182, N-(3-Ethyl-4-(methyl(1-methyl-1H-imidazo[4,5-c]pyridin-6-yl)amino)benzyl)acetamide] | > 1000 nM | > 5000 nM | 0.01 to 100 nM | > 1000 nM | 101 to 500 nM | 501 to 1000 nM | – | –
4 | CCc1cc(C2CCOCC2)ccc1N(C)c1cc2c(cn1)ncn2C [Compound 186, N-(2-Ethyl-4-(tetrahydro-2H-pyran-4-yl)phenyl)-N,1-dimethyl-1H-imidazo[4,5-c]pyridin-6-amine] | 1 to 500 nM | 1000 to 5000 nM | 0.01 to 100 nM | > 1000 nM | 0.01 to 100 nM | 101 to 500 nM | – | –
5 | CCc1cc(CNS(C)(=O)=O)ccc1N(C)c1cc2c(cn1)ncn2C [Compound 190, N-(3-Ethyl-4-(methyl(1-methyl-1H-imidazo[4,5-c]pyridin-6-yl)amino)benzyl)methane sulfonamide] | 1 to 500 nM | 1000 to 5000 nM | 0.01 to 100 nM | > 1000 nM | 0.01 to 100 nM | 0.01 to 100 nM | – | –
6 | CCc1cc(-c2cncc(C(F)(F)F)c2)ccc1N(C)c1cc2c(cn1)ncn2C [Compound 194, N-(2-ethyl-4-(5-(trifluoromethyl)pyridin-3-yl)phenyl)-N,1-dimethyl-1H-imidazo[4,5-c]pyridin-6-amine] | > 1000 nM | 1000 to 5000 nM | 0.01 to 100 nM | > 1000 nM | 501 to 1000 nM | > 1000 nM | – | –
7 | CCc1cc(C2=CCN(C(=O)CC#N)CC2)ccc1N(C)c1cc2c(cn1)ncn2C [Compound 195, 3-(4-(3-Ethyl-4-(methyl(1-methyl-1H-imidazo[4,5-c]pyridin-6-yl)amino)phenyl)-5,6-dihydropyridin-1(2H)-yl)-3-oxopropanenitrile] | 501 to 1000 nM | 1000 to 5000 nM | 0.01 to 100 nM | > 1000 nM | 0.01 to 100 nM | 101 to 500 nM | – | –
8 | CCc1cc(C2=CCN(C(=O)C(F)F)CC2)ccc1N(C)c1cc2c(cn1)ncn2C [Compound 197, 1-(4-(3-ethyl-4-(methyl(1-methyl-1H-imidazo[4,5-c]pyridin-6-yl)amino)phenyl)-5,6-dihydropyridin-1(2H)-yl)-2,2-difluoroethanone] | 1 to 500 nM | 1000 to 5000 nM | 0.01 to 100 nM | 501 to 1000 nM | 0.01 to 100 nM | 0.01 to 100 nM | – | –
9 | CCc1cc(C2=CCN(C(=O)COC)CC2)ccc1N(C)c1cc2c(cn1)ncn2C [Compound 199, 1-(4-(3-ethyl-4-(methyl(1-methyl-1H-imidazo[4,5-c]pyridin-6-yl)amino)phenyl)-5,6-dihydropyridin-1(2H)-yl)-2-methoxyethanone] | 1 to 500 nM | 1000 to 5000 nM | 0.01 to 100 nM | > 1000 nM | 0.01 to 100 nM | 0.01 to 100 nM | – | –
10 | CCc1cc(-c2cn[nH]c2)ccc1N(C)c1cc2c(cn1)ncn2C [Compound 210, N-(2-ethyl-4-(1H-pyrazol-4-yl)phenyl)-N,1-dimethyl-1H-imidazo[4,5-c]pyridin-6-amine] | 1 to 500 nM | 1 to 1000 nM | 0.01 to 100 nM | > 1000 nM | 0.01 to 100 nM | 0.01 to 100 nM | – | –
11 | CCc1cc(C2CCN(S(C)(=O)=O)CC2)ccc1N(C)c1cc2c(cn1)ncn2C [Compound 214, N-(2-ethyl-4-(1-(methylsulfonyl)piperidin-4-yl)phenyl)-N,1-dimethyl-1H-imidazo[4,5-c]pyridin-6-amine] | 1 to 500 nM | 1 to 1000 nM | 0.01 to 100 nM | 501 to 1000 nM | 0.01 to 100 nM | – | – | –
12 | CCc1cc(CNS(=O)(=O)C2CC2)ccc1N(C)c1cc2c(cn1)ncn2C [Compound 227, N-(3-ethyl-4-(methyl(1-methyl-1H-imidazo[4,5-c]pyridin-6-yl)amino)benzyl)cyclopro-panesulfonamide] | – | > 5000 nM | 0.01 to 100 nM | > 1000 nM | 101 to 500 nM | 501 to 1000 nM | 501 to 1000 nM | –
13 | CCc1cc(CNS(=O)(=O)CC#N)ccc1N(C)c1cc2c(cn1)ncn2C [Compound 228, 1-cyano-N-(3-ethyl-4-(methyl(1-methyl-1H-imidazo[4,5-c]pyridin-6-yl)amino)benzyl)methane-sulfonamide] | 1 to 500 nM | > 5000 nM | 0.01 to 100 nM | 1 to 500 nM | 0.01 to 100 nM | 0.01 to 100 nM | – | –
14 | CCc1cc(C2=CCN(C(=O)C3(O)CC3)CC2)ccc1N(C)c1cc2c(cn1)ncn2C [Compound 229, (4-(3-ethyl-4-(methyl(1-methyl-1H-imidazo[4,5-c]pyridin-6-yl)amino)phenyl)-5,6-dihydropyridin-1(2H)-yl)(1-hydroxycyclopropyl)meth-anone] | 1 to 500 nM | 1000 to 5000 nM | 0.01 to 100 nM | > 1000 nM | 0.01 to 100 nM | 101 to 500 nM | – | –
15 | CCc1cc(CNS(=O)(=O)N2CCCCC2)ccc1N(C)c1cc2c(cn1)ncn2C [Compound 243, N-(3-ethyl-4-(methyl(1-methyl-1H-imidazo[4,5-c]pyridin-6-yl)amino)benzyl)piperidine-1-sulfonamide] | 1 to 500 nM | 1000 to 5000 nM | 0.01 to 100 nM | > 1000 nM | 101 to 500 nM | 101 to 500 nM | – | –
16 | CCc1cc(N2CCC(F)(F)C2)ncc1N(C)c1cc2c(cn1)ncn2C [Compound 411, [6-(3,3-Difluoro-pyrrolidin-1-yl)-4-ethyl-pyridin-3-yl]-methyl-(1-methyl-1H-imidazo[4,5-c]pyridin-6-yl)-amine] | – | 1000 to 5000 nM | 0.01 to 100 nM | > 1000 nM | 0.01 to 100 nM | 0.01 to 100 nM | – | 0.01 to 100 nM
17 | CCc1cc(N2CC(F)(F)C2)ncc1N(C)c1cc2c(cn1)ncn2C [Compound 413, [6-(3,3-Difluoro-azetidin-1-yl)-4-ethyl-pyridin-3-yl]-methyl-(1-methyl-1H-imidazo[4,5-c]pyridin-6-yl)-amine] | – | 1000 to 5000 nM | 0.01 to 100 nM | > 1000 nM | 0.01 to 100 nM | 101 to 500 nM | – | 0.01 to 100 nM
18 | CN(c1cc2c(cn1)ncn2C)c1ccc(CNS(C)(=O)=O)cc1OC(F)F [Compound 429, N-{3-Difluoromethoxy-4-[methyl-(1-methyl-1H-imidazo[4,5-c]pyridin-6-yl)-amino]-benzyl}-methanesulfonamide] | – | > 5000 nM | 0.01 to 100 nM | > 1000 nM | 101 to 500 nM | 0.01 to 100 nM | – | 0.01 to 100 nM
19 | CN(c1cc2c(cn1)ncn2C)c1ccc(CN(C)S(C)(=O)=O)cc1OC(F)F [Compound 430, N-{3-Difluoromethoxy-4-[methyl-(1-methyl-1H-imidazo[4,5-c]pyridin-6-yl)-amino]-benzyl}-N-methyl-methanesulfonamide] | – | 1000 to 5000 nM | 0.01 to 100 nM | > 1000 nM | 0.01 to 100 nM | 0.01 to 100 nM | – | 0.01 to 100 nM
